Source: publication PMC5218480 (PLoS ONE, 2017)

Tested on: MV-4-11 cells
Test: Gene expression microarray analysis (Affymetrix PrimeView) and GSEA
Type: cell-based, human
Design: RFU PODN (11730768_x_at) / Fold change /veh PODN (11730768_x_at) / RFU LINC00158 (11744669_a_at) / Fold change /veh LINC00158 (11744669_a_at) / RFU DUSP10 (11751237_a_at) / Fold change /veh DUSP10 (11751237_a_at) / RFU ID3 (11757404_x_at) / Fold change /veh ID3 (11757404_x_at) / RFU PLEKHG5 (11737974_s_at) / Fold change /veh PLEKHG5 (11737974_s_at) / RFU LRRC4B (11730491_at) / Fold change /veh LRRC4B (11730491_at) / RFU GIMAP4 (11747438_a_at) / Fold change /veh GIMAP4 (11747438_a_at) / RFU KRT8 (11758183_x_at) / Fold change /veh KRT8 (11758183_x_at) / RFU CNN1 (11734310_a_at) / Fold change /veh CNN1 (11734310_a_at) / RFU VPS37D (11726825_at) / Fold change /veh VPS37D (11726825_at) / RFU C10orf10 (11716522_x_at) / Fold change /veh C10orf10 (11716522_x_at) / RFU KIR2DL2 /// KIR2DL4 /// KIR2DL5A /// KIR2DL5B /// KIR2DS1 /// KIR2DS2 /// KIR2DS3 /// KIR2DS4 /// KIR3DL3 /// KIR3DL3 /// KIR3DS1 (11738374_at) / Fold change /veh KIR2DL2 /// KIR2DL4 /// KIR2DL5A /// KIR2DL5B /// KIR2DS1 /// KIR2DS2 /// KIR2DS3 /// KIR2DS4 /// KIR3DL3 /// KIR3DL3 /// KIR3DS1 (11738374_at) / RFU C1QL1 (11718748_at) / Fold change /veh C1QL1 (11718748_at) / RFU TMPRSS4 (11747572_a_at) / Fold change /veh TMPRSS4 (11747572_a_at) / RFU HAMP (11756126_x_at) / Fold change /veh HAMP (11756126_x_at) / RFU RNFT2 (11725882_a_at) / Fold change /veh RNFT2 (11725882_a_at) / RFU NR4A2 (11747474_a_at) / Fold change /veh NR4A2 (11747474_a_at) / RFU ABCC12 (11746883_a_at) / Fold change /veh ABCC12 (11746883_a_at) / RFU TMEM136 (11760407_x_at) / Fold change /veh TMEM136 (11760407_x_at) / RFU CLDN22 /// WWC2 (11732394_at) / Fold change /veh CLDN22 /// WWC2 (11732394_at) / RFU HLA-DPB1 (11760878_x_at) / Fold change /veh HLA-DPB1 (11760878_x_at) / RFU SPINT1 (11716480_a_at) / Fold change /veh SPINT1 (11716480_a_at) / RFU GAP43 (11754022_s_at) / Fold change /veh GAP43 (11754022_s_at) / RFU A4GNT (11735810_at) / Fold change /veh A4GNT (11735810_at) / RFU PRB3 (11715151_x_at) / Fold change /veh PRB3 (11715151_x_at) / RFU TUBB4B (11761932_at) / Fold change /veh TUBB4B (11761932_at) / RFU CAPN14 (11732068_a_at) / Fold change /veh CAPN14 (11732068_a_at) / RFU TMCC2 (11721928_a_at) / Fold change /veh TMCC2 (11721928_a_at) / RFU IRGQ (11745062_a_at) / Fold change /veh IRGQ (11745062_a_at) / RFU FAM174B (11720279_a_at) / Fold change /veh FAM174B (11720279_a_at) / RFU TMPRSS4 (11748680_a_at) / Fold change /veh TMPRSS4 (11748680_a_at) / RFU FAM212B (11763350_a_at) / Fold change /veh FAM212B (11763350_a_at) / RFU PLEKHG5 (11743358_a_at) / Fold change /veh PLEKHG5 (11743358_a_at) / RFU ZSCAN30 (11745921_a_at) / Fold change /veh ZSCAN30 (11745921_a_at) / RFU CMKLR1 (11741424_a_at) / Fold change /veh CMKLR1 (11741424_a_at) / RFU LOC101060620 /// MAPK8IP1 (11723275_at) / Fold change /veh LOC101060620 /// MAPK8IP1 (11723275_at) / RFU SPTSSB (11747773_x_at) / Fold change /veh SPTSSB (11747773_x_at) / RFU PRSS12 (11739890_at) / Fold change /veh PRSS12 (11739890_at) / RFU BIN1 (11741810_x_at) / Fold change /veh BIN1 (11741810_x_at) / RFU WNT11 (11732464_a_at) / Fold change /veh WNT11 (11732464_a_at) / RFU C10orf10 (11716521_a_at) / Fold change /veh C10orf10 (11716521_a_at) / RFU C5orf56 (11738089_at) / Fold change /veh C5orf56 (11738089_at) / RFU CYB561 (11721691_x_at) / Fold change /veh CYB561 (11721691_x_at) / RFU ANKRD19P (11752326_a_at) / Fold change /veh ANKRD19P (11752326_a_at) / RFU OR2T12 /// OR2T33 /// OR2T8 (11738714_s_at) / Fold change /veh OR2T12 /// OR2T33 /// OR2T8 (11738714_s_at) / RFU VCAN (11748164_a_at) / Fold change /veh VCAN (11748164_a_at) / RFU JSRP1 (11732532_at) / Fold change /veh JSRP1 (11732532_at) / RFU KRTAP10-11 (11738290_x_at) / Fold change /veh KRTAP10-11 (11738290_x_at) / RFU MYO3A (11730013_a_at) / Fold change /veh MYO3A (11730013_a_at) / RFU EBF3 (11725865_a_at) / Fold change /veh EBF3 (11725865_a_at) / RFU CAMK2N1 (11719241_x_at) / Fold change /veh CAMK2N1 (11719241_x_at) / RFU C5orf56 (11738088_a_at) / Fold change /veh C5orf56 (11738088_a_at) / RFU OLFML3 (11715873_a_at) / Fold change /veh OLFML3 (11715873_a_at) / RFU LOC100653217 /// NTM (11731650_a_at) / Fold change /veh LOC100653217 /// NTM (11731650_a_at) / RFU MAPK11 (11762145_a_at) / Fold change /veh MAPK11 (11762145_a_at) / RFU FIZ1 (11724087_x_at) / Fold change /veh FIZ1 (11724087_x_at) / RFU OASL (11726364_x_at) / Fold change /veh OASL (11726364_x_at) / RFU SOX15 (11748057_x_at) / Fold change /veh SOX15 (11748057_x_at) / RFU CD79A (11719716_a_at) / Fold change /veh CD79A (11719716_a_at) / RFU HIST1H1D (11736915_at) / Fold change /veh HIST1H1D (11736915_at) / RFU CASKIN2 (11723855_a_at) / Fold change /veh CASKIN2 (11723855_a_at) / RFU LOC730098 (11760151_x_at) / Fold change /veh LOC730098 (11760151_x_at) / RFU OR4N2 (11742367_at) / Fold change /veh OR4N2 (11742367_at) / RFU PRRT2 (11749266_a_at) / Fold change /veh PRRT2 (11749266_a_at) / RFU SNX32 (11753110_a_at) / Fold change /veh SNX32 (11753110_a_at) / RFU CDHR5 (11726645_a_at) / Fold change /veh CDHR5 (11726645_a_at) / RFU RCAN1 (11760418_a_at) / Fold change /veh RCAN1 (11760418_a_at) / RFU FAM167A (11723789_a_at) / Fold change /veh FAM167A (11723789_a_at) / RFU FAM26E (11764081_at) / Fold change /veh FAM26E (11764081_at) / RFU ISYNA1 (11749810_s_at) / Fold change /veh ISYNA1 (11749810_s_at) / RFU ACY1 (11761880_at) / Fold change /veh ACY1 (11761880_at) / RFU 11764098_at / Fold change /veh 11764098_at / RFU SAMD14 (11745864_x_at) / Fold change /veh SAMD14 (11745864_x_at) / RFU NPB (11741838_a_at) / Fold change /veh NPB (11741838_a_at) / RFU TMPRSS6 (11731388_a_at) / Fold change /veh TMPRSS6 (11731388_a_at) / RFU KRTAP10-2 (11738614_at) / Fold change /veh KRTAP10-2 (11738614_at) / RFU ARHGAP8 /// PRR5-ARHGAP8 (11727945_x_at) / Fold change /veh ARHGAP8 /// PRR5-ARHGAP8 (11727945_x_at) / RFU KRTAP5-7 /// NADSYN1 (11734609_at) / Fold change /veh KRTAP5-7 /// NADSYN1 (11734609_at) / RFU RASL12 (11751679_a_at) / Fold change /veh RASL12 (11751679_a_at) / RFU CDKN2B (11736163_a_at) / Fold change /veh CDKN2B (11736163_a_at) / RFU PRF1 (11729649_at) / Fold change /veh PRF1 (11729649_at) / RFU, ZNF638 /// ZNF638-IT1 / Fold change vs veh, ZNF638 /// ZNF638-IT1 / RFU, PANK3 / Fold change vs veh, PANK3 / RFU, SH3YL1 / Fold change vs veh, SH3YL1 / RFU, ZEB2 / Fold change vs veh, ZEB2 / RFU, NRIP1 / Fold change vs veh, NRIP1 / RFU, PTTG1IP / Fold change vs veh, PTTG1IP / RFU, CAPN2 / Fold change vs veh, CAPN2 / RFU, MED14 / Fold change vs veh, MED14 / RFU, SNORA58 / Fold change vs veh, SNORA58 / RFU, C1orf63 / Fold change vs veh, C1orf63 / RFU, LRRFIP1 / Fold change vs veh, LRRFIP1 / RFU, NDUFAF7 / Fold change vs veh, NDUFAF7 / RFU, SLC12A2 / Fold change vs veh, SLC12A2 / RFU, IBTK / Fold change vs veh, IBTK / RFU, ESF1 / Fold change vs veh, ESF1 / Fold change vs veh, TMEM50B / RFU, TAOK1 / Fold change vs veh, TAOK1 / RFU, ACBD3 / Fold change vs veh, ACBD3 / RFU, TMA16 / Fold change vs veh, TMA16 / RFU, RWDD3 / Fold change vs veh, RWDD3 / RFU, BCAT1 / Fold change vs veh, BCAT1 / RFU, EDEM3 / Fold change vs veh, EDEM3 / RFU, TMEM33 / Fold change vs veh, TMEM33 / RFU, WDR75 / Fold change vs veh, WDR75 / RFU, AHCTF1 / Fold change vs veh, AHCTF1 / RFU, TFRC / Fold change vs veh, TFRC / RFU, ZDHHC17 / Fold change vs veh, ZDHHC17 / RFU, NOM1 / Fold change vs veh, NOM1 / RFU, ARL8B / Fold change vs veh, ARL8B / RFU, ZBTB11 / Fold change vs veh, ZBTB11 / RFU, TAMM41 / Fold change vs veh, TAMM41 / RFU, KIAA1704 /// LOC100996395 / Fold change vs veh, KIAA1704 /// LOC100996395 / RFU, ING1 / Fold change vs veh, ING1 / RFU, TRMT61B / Fold change vs veh, TRMT61B / RFU, FUBP3 / Fold change vs veh, FUBP3 / RFU, TP53 / Fold change vs veh, TP53 / RFU, TNKS2 / Fold change vs veh, TNKS2 / RFU, ZFP14 / Fold change vs veh, ZFP14 / RFU, ACTR2 / Fold change vs veh, ACTR2 / RFU, PPP3R1 / Fold change vs veh, PPP3R1 / RFU, PIK3R1 / Fold change vs veh, PIK3R1 / RFU, HNRNPA1 / Fold change vs veh, HNRNPA1 / RFU, RNF170 / Fold change vs veh, RNF170 / RFU, ZNF28 / Fold change vs veh, ZNF28 / RFU, RNGTT / Fold change vs veh, RNGTT / RFU, OGT / Fold change vs veh, OGT / RFU, BRD1 / Fold change vs veh, BRD1 / RFU, MARS / Fold change vs veh, MARS / RFU, ZNF655 / Fold change vs veh, ZNF655 / RFU, FAHD1 / Fold change vs veh, FAHD1 / RFU, BDP1 / Fold change vs veh, BDP1 / RFU, LRRCC1 / Fold change vs veh, LRRCC1 / RFU, ARID1A / Fold change vs veh, ARID1A / RFU, ZNF146 / Fold change vs veh, ZNF146 / RFU, ZNF330 / Fold change vs veh, ZNF330 / RFU, GPN3 / Fold change vs veh, GPN3 / RFU, C9orf123 / Fold change vs veh, C9orf123 / RFU, N4BP2L2 / Fold change vs veh, N4BP2L2 / RFU, ARFIP1 / Fold change vs veh, ARFIP1 / RFU, FAM179B / Fold change vs veh, FAM179B / RFU, BCL10 / Fold change vs veh, BCL10 / RFU, UHRF1BP1L / Fold change vs veh, UHRF1BP1L / RFU, BET1 / Fold change vs veh, BET1 / RFU, CNOT2 / Fold change vs veh, CNOT2 / RFU, ZNF268 / Fold change vs veh, ZNF268 / Fold change vs veh, ZNF507 / RFU, DGCR2 / Fold change vs veh, DGCR2 / RFU, WDSUB1 / Fold change vs veh, WDSUB1 / Fold change vs veh, HSP90B1 /// MIR3652 / RFU, ADSS / Fold change vs veh, ADSS / RFU, GK / Fold change vs veh, GK / RFU, ZNF148 / Fold change vs veh, ZNF148 / RFU, TAF9 / Fold change vs veh, TAF9 / RFU, SLC1A5 / Fold change vs veh, SLC1A5 / RFU, SLMO2 / Fold change vs veh, SLMO2 / RFU, ABCC4 / Fold change vs veh, ABCC4 / RFU, LOC101060439 /// RAP1B / Fold change vs veh, LOC101060439 /// RAP1B / RFU, RFX7 / Fold change vs veh, RFX7 / RFU, GTPBP10 / Fold change vs veh, GTPBP10 / RFU, CNEP1R1 / Fold change vs veh, CNEP1R1 / RFU, BIVM-ERCC5 /// ERCC5 / Fold change vs veh, BIVM-ERCC5 /// ERCC5 / RFU, ILF3 / Fold change vs veh, ILF3 / RFU 11762660_at / Fold change /veh 11762660_at / RFU VCAN (11757783_s_at) / Fold change /veh VCAN (11757783_s_at) / RFU DDX43 (11728927_at) / Fold change /veh DDX43 (11728927_at) / RFU KRT8 (11758188_x_at) / Fold change /veh KRT8 (11758188_x_at) / RFU NKD1 (11759106_at) / Fold change /veh NKD1 (11759106_at) / RFU SRD5A1 (11742802_a_at) / Fold change /veh SRD5A1 (11742802_a_at) / RFU TPSAB1 /// TPSB2 (11721975_s_at) / Fold change /veh TPSAB1 /// TPSB2 (11721975_s_at) / RFU GSTM3 (11746129_a_at) / Fold change /veh GSTM3 (11746129_a_at) / RFU IL23R (11737362_x_at) / Fold change /veh IL23R (11737362_x_at) / RFU TMEM51 (11727254_a_at) / Fold change /veh TMEM51 (11727254_a_at) / RFU PIWIL2 (11732686_x_at) / Fold change /veh PIWIL2 (11732686_x_at) / RFU ORM1 (11744905_x_at) / Fold change /veh ORM1 (11744905_x_at) / RFU CCDC152 (11743942_at) / Fold change /veh CCDC152 (11743942_at) / RFU ECM1 (11717891_a_at) / Fold change /veh ECM1 (11717891_a_at) / RFU IL23R (11748794_a_at) / Fold change /veh IL23R (11748794_a_at) / RFU TNFAIP8L3 (11732012_x_at) / Fold change /veh TNFAIP8L3 (11732012_x_at) / RFU MBOAT4 (11741988_at) / Fold change /veh MBOAT4 (11741988_at) / RFU 11764193_at / Fold change /veh 11764193_at / RFU TMEM53 (11763286_at) / Fold change /veh TMEM53 (11763286_at) / RFU MAGEB2 (11727129_at) / Fold change /veh MAGEB2 (11727129_at) / RFU TMEM200A (11744735_a_at) / Fold change /veh TMEM200A (11744735_a_at) / RFU CCDC152 (11751479_a_at) / Fold change /veh CCDC152 (11751479_a_at) / RFU FAM211A (11726209_a_at) / Fold change /veh FAM211A (11726209_a_at) / RFU RGS16 (11746705_a_at) / Fold change /veh RGS16 (11746705_a_at) / RFU VCAN (11755009_s_at) / Fold change /veh VCAN (11755009_s_at) / RFU RHOB (11743442_s_at) / Fold change /veh RHOB (11743442_s_at) / RFU RGS16 (11720943_a_at) / Fold change /veh RGS16 (11720943_a_at) / RFU RGS16 (11720944_at) / Fold change /veh RGS16 (11720944_at) / RFU, VPS4B / Fold change vs veh, VPS4B / RFU, CREB1 / Fold change vs veh, CREB1 / RFU, DNAJC13 / Fold change vs veh, DNAJC13 / RFU, GNAQ / Fold change vs veh, GNAQ / RFU, CDK5R1 / Fold change vs veh, CDK5R1 / RFU, ZRANB3 / Fold change vs veh, ZRANB3 / RFU, CUL4A / Fold change vs veh, CUL4A / RFU, CCNY / Fold change vs veh, CCNY / RFU, UFL1 / Fold change vs veh, UFL1 / RFU, COG3 / Fold change vs veh, COG3 / RFU, DIAPH2 / Fold change vs veh, DIAPH2 / RFU, SKA2 / Fold change vs veh, SKA2 / RFU, AFF3 / Fold change vs veh, AFF3 / RFU, LMF1 / Fold change vs veh, LMF1 / RFU, IPO11 / Fold change vs veh, IPO11 / RFU, DFFB / Fold change vs veh, DFFB / RFU, FOXP1 / Fold change vs veh, FOXP1 / RFU, CARD8 / Fold change vs veh, CARD8 / RFU, STRN3 / Fold change vs veh, STRN3 / RFU, ADK / Fold change vs veh, ADK / RFU, RASSF2 / Fold change vs veh, RASSF2 / RFU, WIPF1 / Fold change vs veh, WIPF1 / RFU, LARP1B / Fold change vs veh, LARP1B / RFU, RASA1 / Fold change vs veh, RASA1 / RFU, RB1 / Fold change vs veh, RB1 / RFU, PPFIA1 / Fold change vs veh, PPFIA1 / RFU, MAT2A / Fold change vs veh, MAT2A / RFU, CCT5 / Fold change vs veh, CCT5 / RFU, WDR92 / Fold change vs veh, WDR92 / RFU, CUX1 / Fold change vs veh, CUX1 / RFU, TTC7A / Fold change vs veh, TTC7A / RFU, TMEM135 / Fold change vs veh, TMEM135 / RFU, DEPTOR / Fold change vs veh, DEPTOR / RFU, CPM / Fold change vs veh, CPM / RFU, DNAJB6 / Fold change vs veh, DNAJB6 / RFU, CACNA2D3 / Fold change vs veh, CACNA2D3 / RFU, DTX4 / Fold change vs veh, DTX4 / RFU, TFCP2 / Fold change vs veh, TFCP2 / RFU, GMCL1 /// GMCL1P1 / Fold change vs veh, GMCL1 /// GMCL1P1 / RFU, AEBP2 / Fold change vs veh, AEBP2 / RFU, SNHG1 /// SNORD22 /// SNORD25 /// SNORD26 /// SNORD27 /// SNORD28 /// SNORD29 /// SNORD31 / Fold change vs veh, SNHG1 /// SNORD22 /// SNORD25 /// SNORD26 /// SNORD27 /// SNORD28 /// SNORD29 /// SNORD31 / Fold change (Aza/veh), C12orf56 (ProbeSet 11735607_a_at) / Fold change (ACY-1035/veh), C12orf56 (ProbeSet 11735607_a_at) / Fold change (Aza/veh), FGFR1OP (ProbeSet 11751329_s_at) / Fold change (ACY-1035/veh), FGFR1OP (ProbeSet 11751329_s_at) / Fold change (Aza/veh), VPS36 (ProbeSet 11739960_a_at) / Fold change (ACY-1035/veh), VPS36 (ProbeSet 11739960_a_at) / RFU SYPL1 (11715823_x_at) / Fold change /veh SYPL1 (11715823_x_at) / RFU IGFBP7 (11715501_s_at) / Fold change /veh IGFBP7 (11715501_s_at) / RFU REEP3 (11722064_at) / Fold change /veh REEP3 (11722064_at) / RFU IGLL1 (11728026_x_at) / Fold change /veh IGLL1 (11728026_x_at): dose or concentration left out as unconfirmed
Settings: ProbeSet 11720566_at; LIST D

`Nc1ncn([C@@H]2O[C@H](CO)[C@@H](O)[C@H]2O)c(=O)n1` [azacitidine] was tested, and the “RFU, BCAT1” value was 650.05 RFU.
